This note sets out measurements from ChEMBL document CHEMBL1201862, “PubChem BioAssay data set” (2004).

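Test compounds were applied to cells in 96-well plates for 48 hours at 5 doses. At the GI50, growth is halved.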 Active and inactive are the calls of the source. Cut-off read from the data, not from the text of the source: active = GI50 up to about 1.1 µM and inactive = higher.

Some test systems named below: EKVX; IGROV-1; SK-OV-3; HCT-116; NCI-H522; SNB-19; T47D; PC-3; Hs-578T; NCI-H460; NCI/ADR-RES; HCT-15; A549; OVCAR-8; COLO 205; SF-295; TK-10; SN12C; MCF7; SNB-75.
What all share (experiment): growth of human tumour cells (NCI), 48 h

`COC(=O)C1=C(C(=O)OC)SC2(S1)C(C(=O)OC)=C(C(=O)OC)Sc1c2ssc1=O`: the GI50 in the experiment on EKVX is 2.16 µM (inactive); in the experiment on IGROV-1, 1.65 µM (inactive); in the experiment on SK-OV-3, 8.97 µM (inactive); with HCT-116 it was 0.459 µM (active); in the experiment with NCI-H522 it was 0.177 µM (active); in the experiment on SNB-19, 18.5 µM (inactive). Moreover, the GI50 in the experiment on T47D was 1.12 µM (active); in the experiment on PC-3, 1.43 µM (inactive); in the experiment with Hs-578T, 5.18 µM (inactive); with NCI-H460, 2.88 µM (inactive); in the experiment with NCI/ADR-RES it was 1 µM (active); with HCT-15, 0.369 µM. The GI50 was 9.66 µM (inactive) with A549; 1.34 µM (inactive) in the experiment with OVCAR-8; 0.524 µM (active) with COLO 205; 11.4 µM (inactive) with SF-295; 1.58 µM (inactive) with TK-10; 1.19 µM (inactive) in the experiment with SN12C. Moreover, the GI50 is 1.26 µM (inactive) with MCF7 and 4.01 µM (inactive) in the experiment with SNB-75.

For the molecule `CC(C)C[C@H]1[C@@H](OCc2ccccc2)COS(=O)(=O)N1[C@H](C)c1ccccc1`, the GI50 in the experiment on EKVX was 22.1 µM (inactive); in the experiment on IGROV-1 it was > 100 µM (inactive); in the experiment with SK-OV-3, > 93.1 µM (inactive); in the experiment with HCT-116, 5.24 µM (inactive); in the experiment with NCI-H522, 7.83 µM (inactive); in the experiment with SNB-19, > 46 µM (inactive). For the same molecule, the GI50 in the experiment with T47D is 2.9 µM (inactive); with PC-3 it was 7.38 µM (inactive); with Hs-578T, > 100 µM (inactive); in the experiment with NCI-H460, 11.7 µM (inactive); in the experiment on NCI/ADR-RES it was 52.2 µM (inactive); in the experiment with HCT-15 it was 29.1 µM. The GI50 in the experiment with A549 is 29.5 µM (inactive); in the experiment on OVCAR-8, > 61.5 µM (inactive); in the experiment on COLO 205, > 72.6 µM (inactive); in the experiment with SF-295 it was 9.12 µM (inactive); in the experiment on TK-10 it was 83 µM (inactive); in the experiment on SN12C it was 75.3 µM (inactive). Further, the values for the GI50 with MCF7 and with SNB-75 were 21.7 µM (inactive) and > 46.7 µM (inactive), respectively.

For the molecule `CSC(=N\c1ccccc1)/N=C(\SCc1ccccc1)N(C)C`, the GI50 in the experiment with EKVX was 1.63 µM (inactive); in the experiment on IGROV-1, 0.923 µM (active); in the experiment on SK-OV-3 it was 3.24 µM (inactive); in the experiment with HCT-116, 0.292 µM (active); in the experiment with NCI-H522, 0.21 µM (active); in the experiment with SNB-19, 1.39 µM (inactive). Moreover, the GI50 is 0.427 µM (active) with T47D; 1.29 µM (inactive) in the experiment with PC-3; 0.859 µM (active) in the experiment with Hs-578T; 0.161 µM (active) with NCI-H460; 1.38 µM (inactive) in the experiment on NCI/ADR-RES; 0.463 µM in the experiment with HCT-15. For the same molecule, the GI50 was 1.75 µM (inactive) in the experiment with A549; 1.2 µM (inactive) in the experiment on OVCAR-8; 0.407 µM (active) in the experiment with COLO 205; 1.43 µM (inactive) in the experiment with SF-295; 1.15 µM (inactive) with TK-10; 1.02 µM (active) in the experiment on SN12C. Moreover, the GI50 with MCF7 was 0.278 µM (active); in the experiment with SNB-75 it was 1.62 µM (inactive).

Regarding `COC1N(C2CC(O)C(CO)O2)C(=O)NC(=O)C1(F)Br` (stereo not given), the GI50 was 67.1 µM (inactive) in the experiment on EKVX; 14.1 µM (inactive) with IGROV-1; > 50 µM (inactive) in the experiment on SK-OV-3; 7.8 µM (inactive) in the experiment with HCT-116; 49.1 µM (inactive) in the experiment on NCI-H522; 41.2 µM (inactive) in the experiment with SNB-19. For the same molecule, the GI50 was > 72.3 µM (inactive) in the experiment on T47D; 51.3 µM (inactive) with PC-3; 24.5 µM (inactive) with Hs-578T; 0.346 µM (active) in the experiment on NCI-H460; 10.7 µM (inactive) in the experiment with NCI/ADR-RES; 13.4 µM in the experiment with HCT-15. Also, the GI50 in the experiment with A549 was 1.12 µM (active); in the experiment on OVCAR-8, 4.02 µM (inactive); in the experiment with COLO 205 it was 21.6 µM (inactive); with SF-295, 2.83 µM (inactive); in the experiment with TK-10, > 100 µM (inactive); with SN12C, 9.25 µM (inactive). Besides, the GI50 with MCF7 is 0.52 µM (active); in the experiment on SNB-75, 36.1 µM (inactive).

As to `CC(N/N=N/c1ccc(-c2nc3ccccc3[nH]2)cc1)C(=O)O` (stereo not given), the GI50 in the experiment with EKVX is 31.8 µM (inactive); in the experiment with IGROV-1, 12.9 µM (inactive); in the experiment with SK-OV-3, > 100 µM (inactive); in the experiment on HCT-116, 28.9 µM (inactive); with NCI-H522, 23.3 µM (inactive); in the experiment with SNB-19, > 100 µM (inactive). Besides, the GI50 in the experiment with T47D was 16.3 µM (inactive); with PC-3, 25.6 µM (inactive); in the experiment with Hs-578T it was 33.7 µM (inactive); with NCI-H460 it was 17.5 µM (inactive); in the experiment on NCI/ADR-RES, 7.94 µM (inactive); with HCT-15, 9.57 µM. Besides, the GI50 with A549 was 33 µM (inactive); with OVCAR-8, 22.2 µM (inactive); in the experiment on COLO 205 it was 25.9 µM (inactive); in the experiment on SF-295, 19.6 µM (inactive); with TK-10, 81.7 µM (inactive); in the experiment on SN12C, 36.3 µM (inactive). Further, the GI50 is 4.21 µM (inactive) in the experiment on MCF7 and > 100 µM (inactive) with SNB-75.

With `O=C(Cc1ccc(Cl)c(Cl)c1)N(CCc1ccc(Cl)c(Cl)c1)CCN1CCCC1`, the GI50 was 1.92 µM (inactive) in the experiment with EKVX; 1.74 µM (inactive) with IGROV-1; 2.69 µM (inactive) with SK-OV-3; 1.66 µM (inactive) with HCT-116; 1.77 µM (inactive) in the experiment with NCI-H522; 2.15 µM (inactive) with SNB-19. In addition, the GI50 in the experiment on T47D was 4.06 µM (inactive); with PC-3, 1.83 µM (inactive); in the experiment on Hs-578T it was 2.98 µM (inactive); in the experiment on NCI-H460, 1.85 µM (inactive); with NCI/ADR-RES it was 2.04 µM (inactive); with HCT-15, 1.96 µM. The GI50 was 2.01 µM (inactive) in the experiment on A549; 1.93 µM (inactive) in the experiment on OVCAR-8; 1.68 µM (inactive) in the experiment with COLO 205; 1.96 µM (inactive) with SF-295; 1.81 µM (inactive) in the experiment with TK-10; 1.73 µM (inactive) in the experiment with SN12C. In addition, the GI50 is 1.73 µM (inactive) in the experiment on MCF7 and 2.05 µM (inactive) in the experiment on SNB-75.

In the case of `Cc1cc(=O)nc(Sc2ccc([N+](=O)[O-])cc2[N+](=O)[O-])[nH]1`, the GI50 in the experiment with EKVX is 32.7 µM (inactive); in the experiment with IGROV-1 it was 80.2 µM (inactive); in the experiment with SK-OV-3, 71.8 µM (inactive); in the experiment on HCT-116, 10.2 µM (inactive); in the experiment on NCI-H522, 7.23 µM (inactive); in the experiment with SNB-19, 26.1 µM (inactive). For the same molecule, the GI50 was 17.5 µM (inactive) in the experiment on T47D; 22.2 µM (inactive) in the experiment on PC-3; 37.8 µM (inactive) in the experiment with Hs-578T; 23 µM (inactive) in the experiment on NCI-H460; 30.4 µM (inactive) in the experiment with NCI/ADR-RES; 14.2 µM in the experiment on HCT-15. The GI50 with A549 is 18.5 µM (inactive); with OVCAR-8, 15.9 µM (inactive); with COLO 205, 4.65 µM (inactive); in the experiment with SF-295 it was > 50.5 µM (inactive); with TK-10 it was 15.8 µM (inactive); with SN12C, 10.8 µM (inactive). Besides, the GI50 with MCF7 is 14.4 µM (inactive); with SNB-75 it was 1.53 µM (inactive).

Turning to `Cc1cnc(NCCCN(C)C)c2c1[nH]c1ccc3cc(O)ccc3c12`, the GI50 is 1.49 µM (inactive) in the experiment with EKVX; 1.19 µM (inactive) with IGROV-1; 0.569 µM (active) in the experiment on SK-OV-3; 0.236 µM (active) with HCT-116; 0.129 µM (active) in the experiment with NCI-H522; 0.48 µM (active) in the experiment on SNB-19. Further, the GI50 was 0.485 µM (active) with T47D; 0.585 µM (active) with PC-3; 0.325 µM (active) with Hs-578T; 0.0439 µM (active) in the experiment with NCI-H460; 3.44 µM (inactive) with NCI/ADR-RES; 4.63 µM in the experiment on HCT-15. The GI50 in the experiment on A549 was 0.365 µM (active); in the experiment with OVCAR-8 it was 0.2 µM (active); with COLO 205, 0.244 µM (active); with SF-295, 0.7 µM (active); in the experiment on TK-10 it was 6.04 µM (inactive); with SN12C, 0.244 µM (active). Also, the GI50 in the experiment with MCF7 is 0.308 µM (active); in the experiment with SNB-75, 0.555 µM (active).

With `C=C1CC2(CC(c3ccccc3OC)OC(c3ccccc3OC)C2)OC1=O` (stereo not given), the GI50 in the experiment with EKVX was 14.6 µM (inactive); with IGROV-1, 1.74 µM (inactive); with SK-OV-3 it was 12.8 µM (inactive); with HCT-116, 1.78 µM (inactive); in the experiment on NCI-H522 it was 1.5 µM (inactive); in the experiment on SNB-19, 7.55 µM (inactive). Besides, the GI50 in the experiment on T47D is 1.72 µM (inactive); in the experiment on PC-3, 2.06 µM (inactive); in the experiment with Hs-578T, 2.02 µM (inactive); in the experiment on NCI-H460, 5.75 µM (inactive); with NCI/ADR-RES, 2.47 µM (inactive); with HCT-15, 2.28 µM. The GI50 is 4.76 µM (inactive) with A549; 1.8 µM (inactive) in the experiment with OVCAR-8; 2.36 µM (inactive) in the experiment with COLO 205; 7.38 µM (inactive) in the experiment with SF-295; 1.71 µM (inactive) with TK-10; 1.97 µM (inactive) in the experiment with SN12C. Besides, the GI50 is 1.67 µM (inactive) with MCF7 and 2.59 µM (inactive) in the experiment on SNB-75.

Regarding `CC[C@@H]1CSC(/C=C/C2OC3OC(C)(C)OC3C3OC(C)(C)OC23)=N1` (stereo not given in full), the GI50 in the experiment on EKVX was 11.8 µM (inactive); with IGROV-1 it was 10.3 µM (inactive); with SK-OV-3 it was 35.8 µM (inactive); in the experiment with HCT-116, 3.5 µM (inactive); in the experiment with NCI-H522, 3.18 µM (inactive); in the experiment on SNB-19 it was 20.4 µM (inactive). The GI50 was 4.25 µM (inactive) in the experiment with T47D; 8.2 µM (inactive) with PC-3; 17.9 µM (inactive) in the experiment with Hs-578T; 21.5 µM (inactive) in the experiment with NCI-H460; 12.7 µM (inactive) with NCI/ADR-RES; 3.75 µM with HCT-15. Besides, the GI50 was 22.5 µM (inactive) with A549; 4.49 µM (inactive) with OVCAR-8; 5.32 µM (inactive) in the experiment on COLO 205; 18.6 µM (inactive) in the experiment with SF-295; 3.78 µM (inactive) in the experiment with TK-10; 11.1 µM (inactive) in the experiment on SN12C. In addition, the GI50 was 4.58 µM (inactive) in the experiment on MCF7 and 15 µM (inactive) in the experiment on SNB-75.
